These are literature values, as cited in patent US7079956B2, “Crystal structure of antibiotics bound to the 30S ribosome and its use” (Medical Research Council, priority 2000, dated 2006).

For this series the following is noted: literature values: Ross et al. 1998 (tetracycline), Cohen et al. 1969 (pactamycin), Cabanas et al. 1978 (hygromycin B).

Regarding `CC(=O)c1cccc(NC2C(N)C(NC(=O)N(C)C)(C(C)O)C(C)(O)C2(O)COC(=O)c2c(C)cccc2O)c1` (centres unmarked) [pactamycin, 2-hydroxy-6-methylbenzoic acid [5-[(3-acetylphenyl)amino]-4-amino-3-[[(dimethylamino)-carbonyl]amino]-1,2-dihydroxy-3-(1-hydroxy-ethyl)-2-methylcyclopentyl]methyl ester], the minimum inhibitory concentration was 8 to 80 µM. On to `CN[C@H]1C[C@@H](N)[C@H](O)[C@@H](O[C@@H]2O[C@H](CO)[C@H](O)[C@@H]3OC4(O[C@H]23)O[C@H]([C@@H](N)CO)[C@H](O)[C@H](O)[C@H]4O)[C@@H]1O` (stereo partly drawn) [hygromycin B, O-6-amino-6-deoxy-L-glycero-D-galacto-heptopyranosylidene-(12-3)-O-D-talopyranosyl-(15)-2-deoxy-N3-methyl-D-streptamine], for which the minimum inhibitory concentration entry is given as “around 6 μM”.
